Laboratory results: US12077503B2, “Substituted cyclic amides and their use as herbicides” (FMC CORPORATION, priority 2015, dated 2024)

How the values were obtained:
Format in all cases: in vivo
[1] = test system: redroot pigweed (Amaranthus retroflexus); assay: Test G Pre-Emergence Protocol; conditions: Amaranthus retroflexus, pre-emergence, 312 h, evaluated after 13 days; for pest or weed control at 15.625 g/ha: 15.625 g ai/ha; for pest or weed control at 15.625 g/ha / pest or weed control at 250 g/ha: read-out: Pigweed, Redroot damage rating (100=total damage to plant; 0=no damage to plant); for pest or weed control at 62.5 g/ha: 62.5 g ai/ha, 100=total damage to plant, 0=no damage to plant, read-out: plant damage rating, Pigweed, Redroot; for pest or weed control at 250 g/ha: 250 g ai/ha
How it was run: (§1)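 Under a 24/16° C day/night regime with 14 h light and 65% humidity, sown pots were sprayed after one day with compound (15.625, 62.5 or 250 g/ha; 50:50 acetone/water, 0.5% Tween 20). Damage was assessed visually 13 days later, 0 to 100.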

corn (Zea mays) [2] = assay: Test G Pre-Emergence Protocol; conditions: Zea mays, pre-emergence, 312 h, evaluated after 13 days; for plant injury at 15.625 g/ha: 15.625 g ai/ha; for plant injury at 15.625 g/ha / plant injury at 250 g/ha: read-out: Corn damage rating (100=total damage to plant; 0=no damage to plant); for plant injury at 62.5 g/ha: 62.5 g ai/ha, 100=total damage to plant, 0=no damage to plant, read-out: plant damage rating, Corn; for plant injury at 250 g/ha: 250 g ai/ha
How it was run: as §1

[3] = test system: velvetleaf (Abutilon theophrasti); assay: Test G Pre-Emergence Protocol; conditions: Abutilon theophrasti, pre-emergence, 312 h, evaluated after 13 days; for pest or weed control at 15.625 g/ha: 15.625 g ai/ha; for pest or weed control at 15.625 g/ha / pest or weed control at 250 g/ha: read-out: Velvetleaf damage rating (100=total damage to plant; 0=no damage to plant); for pest or weed control at 62.5 g/ha: 62.5 g ai/ha, 100=total damage to plant, 0=no damage to plant, read-out: plant damage rating, Velvetleaf; for pest or weed control at 250 g/ha: 250 g ai/ha
How it was run: as §1

[4] = test system: barnyardgrass (Echinochloa crus-galli); assay: Test G Pre-Emergence Protocol; conditions: Echinochloa crus-galli, pre-emergence, 312 h, evaluated after 13 days; for pest or weed control at 15.625 g/ha: 15.625 g ai/ha, read-out: Barnyard grass damage rating (100=total damage to plant; 0=no damage to plant); for pest or weed control at 62.5 g/ha: 62.5 g ai/ha, 100=total damage to plant, 0=no damage to plant, read-out: plant damage rating, Barnyardgrass; for pest or weed control at 250 g/ha: 250 g ai/ha, read-out: Barnyardgrass damage rating (100=total damage to plant; 0=no damage to plant)
How it was run: as §1

[5] = test system: giant foxtail (Setaria faberi); assay: Test G Pre-Emergence Protocol; conditions: Setaria faberi, pre-emergence, 312 h, evaluated after 13 days; for pest or weed control at 15.625 g/ha: 15.625 g ai/ha; for pest or weed control at 15.625 g/ha / pest or weed control at 250 g/ha: read-out: Foxtail, Giant damage rating (100=total damage to plant; 0=no damage to plant); for pest or weed control at 62.5 g/ha: 62.5 g ai/ha, 100=total damage to plant, 0=no damage to plant, read-out: plant damage rating, Foxtail, Giant; for pest or weed control at 250 g/ha: 250 g ai/ha
How it was run: as §1

[6] = test system: ivy-leaved morning glory (Ipomoea hederacea); assay: Test G Pre-Emergence Protocol; conditions: Ipomoea, pre-emergence, 312 h, evaluated after 13 days; for pest or weed control at 15.625 g/ha: 15.625 g ai/ha, read-out: Morning-glory, Ivy-leaved damage rating (100=total damage to plant; 0=no damage to plant); for pest or weed control at 62.5 g/ha: 62.5 g ai/ha, 100=total damage to plant, 0=no damage to plant, read-out: plant damage rating, Morningglory, Ivy-leaved; for pest or weed control at 250 g/ha: 250 g ai/ha, read-out: Morningglory, Ivy-leaved damage rating (100=total damage to plant; 0=no damage to plant)
How it was run: as §1

[7] = test system: redroot pigweed (Amaranthus retroflexus); assay: Test G Post-Emergence Protocol; conditions: Amaranthus retroflexus, post-emergence, 312 h; for pest or weed control at 15.625 g/ha: 15.625 g ai/ha, evaluated after 13 days (100=total damage to plant; 0=no damage to plant), read-out: Pigweed, Redroot damage rating; for pest or weed control at 62.5 g/ha: 62.5 g ai/ha, read-out: Pigweed, Redroot damage rating (100=total damage to plant; 0=no damage to plant); for pest or weed control at 62.5 g/ha / pest or weed control at 250 g/ha: evaluated after 13 days; for pest or weed control at 250 g/ha: 250 g ai/ha, read-out: damage to plant, Pigweed, Redroot (100=total damage to plant; 0=no damage to plant)
How it was run: (§2)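 Values are percent visual injury at 13 days after treatment (0 none, 100 total). Treatment was a post-emergence spray at 15.625, 62.5 or 250 g/ha on 8-day-old pot plants kept at 24/16 °C.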

corn (Zea mays) [8] = assay: Test G Post-Emergence Protocol; conditions: Zea mays, post-emergence, 312 h; for plant injury at 15.625 g/ha: 15.625 g ai/ha, evaluated after 13 days (100=total damage to plant; 0=no damage to plant), read-out: Corn damage rating; for plant injury at 62.5 g/ha: 62.5 g ai/ha, read-out: Corn damage rating (100=total damage to plant; 0=no damage to plant); for plant injury at 62.5 g/ha / plant injury at 250 g/ha: evaluated after 13 days; for plant injury at 250 g/ha: 250 g ai/ha, read-out: damage to plant, Corn (100=total damage to plant; 0=no damage to plant)
How it was run: as §2

[9] = test system: velvetleaf (Abutilon theophrasti); assay: Test G Post-Emergence Protocol; conditions: Abutilon theophrasti, post-emergence, 312 h; for pest or weed control at 15.625 g/ha: 15.625 g ai/ha, evaluated after 13 days (100=total damage to plant; 0=no damage to plant), read-out: Velvetleaf damage rating; for pest or weed control at 62.5 g/ha: 62.5 g ai/ha, read-out: Velvetleaf damage rating (100=total damage to plant; 0=no damage to plant); for pest or weed control at 62.5 g/ha / pest or weed control at 250 g/ha: evaluated after 13 days; for pest or weed control at 250 g/ha: 250 g ai/ha, read-out: damage to plant, Velvetleaf (100=total damage to plant; 0=no damage to plant)
How it was run: as §2

[10] = test system: barnyardgrass (Echinochloa crus-galli); assay: Test G Post-Emergence Protocol; conditions: Echinochloa crus-galli, post-emergence, 312 h; for pest or weed control at 15.625 g/ha: 15.625 g ai/ha, evaluated after 13 days (100=total damage to plant; 0=no damage to plant), read-out: Barnyardgrass damage rating; for pest or weed control at 62.5 g/ha: 62.5 g ai/ha, read-out: Barnyardgrass damage rating (100=total damage to plant; 0=no damage to plant); for pest or weed control at 62.5 g/ha / pest or weed control at 250 g/ha: evaluated after 13 days; for pest or weed control at 250 g/ha: 250 g ai/ha, read-out: damage to plant, Barnyardgrass (100=total damage to plant; 0=no damage to plant)
How it was run: as §2

[11] = test system: giant foxtail (Setaria faberi); assay: Test G Post-Emergence Protocol; conditions: Setaria faberi, post-emergence, 312 h; for pest or weed control at 15.625 g/ha: 15.625 g ai/ha, evaluated after 13 days (100=total damage to plant; 0=no damage to plant), read-out: Foxtail, Giant damage rating; for pest or weed control at 62.5 g/ha: 62.5 g ai/ha, read-out: Foxtail, Giant damage rating (100=total damage to plant; 0=no damage to plant); for pest or weed control at 62.5 g/ha / pest or weed control at 250 g/ha: evaluated after 13 days; for pest or weed control at 250 g/ha: 250 g ai/ha, read-out: damage to plant, Foxtail, Giant (100=total damage to plant; 0=no damage to plant)
How it was run: as §2

[12] = test system: ivy-leaved morning glory (Ipomoea hederacea); assay: Test G Post-Emergence Protocol; conditions: Ipomoea, post-emergence, 312 h; for pest or weed control at 15.625 g/ha: 15.625 g ai/ha, evaluated after 13 days (100=total damage to plant; 0=no damage to plant), read-out: Morningglory, Ivy-leaved damage rating; for pest or weed control at 62.5 g/ha: 62.5 g ai/ha, read-out: Morningglory, Ivy-leaved damage rating (100=total damage to plant; 0=no damage to plant); for pest or weed control at 62.5 g/ha / pest or weed control at 250 g/ha: evaluated after 13 days; for pest or weed control at 250 g/ha: 250 g ai/ha, read-out: damage to plant, Morningglory, Ivy-leaved (100=total damage to plant; 0=no damage to plant)
How it was run: as §2

| Compound | pest or weed control at 15.625 g/ha [1] [%] | pest or weed control at 62.5 g/ha [1] [%] | pest or weed control at 250 g/ha [1] [%] | plant injury at 15.625 g/ha (corn (Zea mays) [2]) [%] | plant injury at 62.5 g/ha (corn (Zea mays) [2]) [%] | plant injury at 250 g/ha (corn (Zea mays) [2]) [%] | pest or weed control at 15.625 g/ha [3] [%] | pest or weed control at 62.5 g/ha [3] [%] | pest or weed control at 250 g/ha [3] [%] | pest or weed control at 15.625 g/ha [4] [%] | pest or weed control at 62.5 g/ha [4] [%] | pest or weed control at 250 g/ha [4] [%] | pest or weed control at 15.625 g/ha [5] [%] | pest or weed control at 62.5 g/ha [5] [%] | pest or weed control at 250 g/ha [5] [%] | pest or weed control at 15.625 g/ha [6] [%] | pest or weed control at 62.5 g/ha [6] [%] | pest or weed control at 250 g/ha [6] [%] | pest or weed control at 15.625 g/ha [7] [%] | pest or weed control at 62.5 g/ha [7] [%] | other results |
| --- | --- | --- | --- | --- | --- | --- | --- | --- | --- | --- | --- | --- | --- | --- | --- | --- | --- | --- | --- | --- | --- |
| CN1C[C@@H](c2ccc(C(F)(F)F)cc2)[C@H](C(=O)Nc2cc(F)nc(F)c2)C1=O (racemic) [Compound 1515] | 0 | 0 | 0 | 0 | 0 | 0 | 0 | 0 | 0 | 0 | 0 | 0 | 0 | 0 | 0 | 0 | 0 | 0 | 0 | 0 | pest or weed control at 250 g/ha [7]: 0%; plant injury at 15.625 g/ha (corn (Zea mays) [8]): 0%; plant injury at 62.5 g/ha (corn (Zea mays) [8]): 0%; plant injury at 250 g/ha (corn (Zea mays) [8]): 0%; pest or weed control at 15.625 g/ha [9]: 0%; pest or weed control at 62.5 g/ha [9]: 0%; pest or weed control at 250 g/ha [9]: 0%; pest or weed control at 15.625 g/ha [10]: 0%; pest or weed control at 62.5 g/ha [10]: 0%; pest or weed control at 250 g/ha [10]: 0%; pest or weed control at 15.625 g/ha [11]: 0%; pest or weed control at 62.5 g/ha [11]: 0%; pest or weed control at 250 g/ha [11]: 0%; pest or weed control at 15.625 g/ha [12]: 0%; pest or weed control at 62.5 g/ha [12]: 0%; pest or weed control at 250 g/ha [12]: 0% |
| Cc1cc(Cl)ccc1NC(=O)[C@H]1C(=O)N(C)C[C@@H]1c1ccc(C(F)(F)F)cc1 (racemic) [Compound 1442] | 0 | 0 | 10 | 0 | 0 | 0 | 0 | 0 | 10 | 0 | 0 | 0 | 0 | 0 | 30 | 0 | 0 | 0 | 0 | 0 | pest or weed control at 250 g/ha [7]: 0%; plant injury at 15.625 g/ha (corn (Zea mays) [8]): 0%; plant injury at 62.5 g/ha (corn (Zea mays) [8]): 0%; plant injury at 250 g/ha (corn (Zea mays) [8]): 0%; pest or weed control at 15.625 g/ha [9]: 0%; pest or weed control at 62.5 g/ha [9]: 0%; pest or weed control at 250 g/ha [9]: 0%; pest or weed control at 15.625 g/ha [10]: 0%; pest or weed control at 62.5 g/ha [10]: 0%; pest or weed control at 250 g/ha [10]: 0%; pest or weed control at 15.625 g/ha [11]: 0%; pest or weed control at 62.5 g/ha [11]: 0%; pest or weed control at 250 g/ha [11]: 0%; pest or weed control at 15.625 g/ha [12]: 0%; pest or weed control at 62.5 g/ha [12]: 0%; pest or weed control at 250 g/ha [12]: 0% |
